Source: patent publication US7008953B2, “3, 5 Disubstituted indazole compounds, pharmaceutical compositions, and methods for mediating or inhibiting cell proliferation” (Agouron Pharmaceuticals, Inc., priority 2003, dated 2006)

Assays:
Type in all cases: biochemical
Conditions in all cases: method of Davies et al.
[1] = molecular target: never-in-mitosis kinase 6 (NEK6) (Homo sapiens, UniProt Q9HC98); experiment: Panel of protein kinases: NEK6
Method: (§1) The compounds of the present invention were screened against a large panel of protein kinase to determine inhibition activity for CDK as against a variety of protein kinases. The assay was conducted using methods and materials described by Davies, S et al. Specificity and Mechanism of Action of Some Commonly Used Protein Kinase Inhibitors, Biochem J. 351, 95–105 (2000), the contents of which are herein incorporated by reference. The compounds were screened against a panel of protein kinases which include AMP-activiated protein kinase (AMPK), checkpoint kinase (CHK1), casein kinases 1 and 2 (CK1 and CK2), cytoplasmic tyrosine kinase (CSK), dual serine/threonine/tyrosine kinase (DYRK1A), glycogen synthase kinase 3 (GSK3B), c-Jun N-terminal kinase (JNK), lymphocyte kinase (LCK), mitogen-activated protein kinases 2, K-1a, K2 (MAPK2, MAPKAP-K1a, and MAPKAP-K2), MAPK kinase (MKK1, also called MEK), mitogen and stress-activated protein kinase 1 (MSK1), never-in-mitosis kinase 6 (NEK6), p70 ribosomal protein S6 kinase (P70s6K1), 3-phosphoinositide-dependent protein kinase 1 (PDK1), phosphorylase kinase (PHK), protein kinase A (PKA), protein kinase B (PKB, also called Akt), protein kinase C (PKCa), p38-regulated/activated kinase (PRAK), Rho-dependent protein kinase (ROCK-II), stress-activated protein kinase 2a, 2b, 3 and 4 (SAPK-2A or p38, SAPK-2b or p38β2, SAPK3 or p38γ, SAPK4 or p38δ, respectively), and serum- and glucocorticoid-induced kinase (SGK). Compound activity was grouped into categories of weak (<50%), moderate (50–75%) and strong inhibition (>75%).

[2] = molecular target: dual serine/threonine/tyrosine kinase (DYRK1A) (Homo sapiens, UniProt Q13627); experiment: Panel of protein kinases: DYRK1A
Method: as §1

[3] = molecular target: protein kinase B (PKB, also called Akt) (Homo sapiens, UniProt P31749); experiment: Panel of protein kinases: PKB
Method: as §1

[4] = molecular target: T1, 3-phosphoinositide-dependent protein kinase 1 (PDK1) (Homo sapiens, UniProt O15530); experiment: Panel of protein kinases: PDK1
T1 sequence (O15530 1-556): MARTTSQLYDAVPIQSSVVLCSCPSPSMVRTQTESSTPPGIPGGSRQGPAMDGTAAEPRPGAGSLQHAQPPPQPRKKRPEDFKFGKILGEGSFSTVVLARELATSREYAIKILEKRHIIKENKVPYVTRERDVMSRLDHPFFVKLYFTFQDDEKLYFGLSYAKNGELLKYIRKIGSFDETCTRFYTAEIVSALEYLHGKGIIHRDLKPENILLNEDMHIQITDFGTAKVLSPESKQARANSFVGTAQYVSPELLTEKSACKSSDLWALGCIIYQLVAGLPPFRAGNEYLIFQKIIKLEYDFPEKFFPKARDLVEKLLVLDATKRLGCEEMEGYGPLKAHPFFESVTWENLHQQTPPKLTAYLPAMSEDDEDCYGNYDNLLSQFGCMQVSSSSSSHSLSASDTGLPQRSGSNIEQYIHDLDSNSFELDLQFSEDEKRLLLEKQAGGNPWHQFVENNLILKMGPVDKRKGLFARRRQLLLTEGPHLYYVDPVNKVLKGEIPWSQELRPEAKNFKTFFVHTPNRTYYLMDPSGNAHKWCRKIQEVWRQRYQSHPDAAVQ
Method: as §1

[5] = molecular target: CDK2/A (Homo sapiens, UniProt P24941); experiment: Panel of protein kinases: CDK2/A
Method: as §1

[6] = molecular target: MAPK kinase (MKK1, also called MEK) (Homo sapiens, UniProt Q02750); experiment: Panel of protein kinases: MKK1
Method: as §1

[7] = molecular target: T2, p38-regulated/activated kinase (PRAK) (Homo sapiens, UniProt Q8IW41); experiment: Panel of protein kinases: PRAK
T2 sequence (Q8IW41 1-473): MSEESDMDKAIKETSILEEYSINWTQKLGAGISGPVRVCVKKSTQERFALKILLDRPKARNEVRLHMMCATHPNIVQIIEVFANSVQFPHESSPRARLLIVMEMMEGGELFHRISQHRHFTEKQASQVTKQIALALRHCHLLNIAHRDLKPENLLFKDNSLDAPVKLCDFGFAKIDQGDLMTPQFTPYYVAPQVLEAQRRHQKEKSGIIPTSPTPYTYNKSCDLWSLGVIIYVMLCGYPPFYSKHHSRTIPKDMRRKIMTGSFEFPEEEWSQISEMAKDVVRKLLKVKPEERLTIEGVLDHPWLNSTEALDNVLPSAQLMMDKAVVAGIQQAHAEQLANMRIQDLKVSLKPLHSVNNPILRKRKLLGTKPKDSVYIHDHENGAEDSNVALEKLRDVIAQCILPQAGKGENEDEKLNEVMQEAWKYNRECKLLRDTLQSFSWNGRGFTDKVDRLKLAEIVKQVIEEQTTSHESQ
Method: as §1

[8] = molecular target: c-Jun N-terminal kinase (JNK) (Homo sapiens, UniProt P45983); experiment: Panel of protein kinases: JNK
Method: as §1

[9] = molecular target: phosphorylase kinase (PHK) (Oryctolagus cuniculus, UniProt P00518); experiment: Panel of protein kinases: PHK
Method: as §1

[10] = molecular target: lymphocyte kinase (LCK) (Homo sapiens, UniProt P06239); experiment: Panel of protein kinases: LCK
Method: as §1

[11] = molecular target: mitogen and stress-activated protein kinase 1 (MSK1) (Homo sapiens, UniProt O75582); experiment: Panel of protein kinases: MSK1
Method: as §1

[12] = molecular target: stress-activated protein kinase 2a (SAPK-2A or p38) (Homo sapiens, UniProt Q16539); experiment: Panel of protein kinases: SAPK-2A
Method: as §1

[13] = molecular target: T3, stress-activated protein kinase 3 (SAPK3 or p38γ) (Homo sapiens, UniProt P53778); experiment: Panel of protein kinases: SAPK3
T3 sequence (P53778 1-367): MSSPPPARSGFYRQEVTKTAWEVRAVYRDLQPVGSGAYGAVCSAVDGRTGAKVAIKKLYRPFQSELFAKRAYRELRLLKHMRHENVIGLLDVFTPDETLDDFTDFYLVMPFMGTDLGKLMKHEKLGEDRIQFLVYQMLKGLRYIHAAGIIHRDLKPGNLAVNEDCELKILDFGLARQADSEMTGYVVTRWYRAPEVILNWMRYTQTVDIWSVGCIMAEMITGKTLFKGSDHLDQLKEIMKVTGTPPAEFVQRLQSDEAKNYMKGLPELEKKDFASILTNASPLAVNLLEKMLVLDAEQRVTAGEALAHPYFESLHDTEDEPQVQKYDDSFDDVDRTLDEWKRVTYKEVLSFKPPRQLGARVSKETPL
Method: as §1

mitogen and stress-activated protein kinase 1 (MSK1), sequence (O75582 whole entry, species assumed): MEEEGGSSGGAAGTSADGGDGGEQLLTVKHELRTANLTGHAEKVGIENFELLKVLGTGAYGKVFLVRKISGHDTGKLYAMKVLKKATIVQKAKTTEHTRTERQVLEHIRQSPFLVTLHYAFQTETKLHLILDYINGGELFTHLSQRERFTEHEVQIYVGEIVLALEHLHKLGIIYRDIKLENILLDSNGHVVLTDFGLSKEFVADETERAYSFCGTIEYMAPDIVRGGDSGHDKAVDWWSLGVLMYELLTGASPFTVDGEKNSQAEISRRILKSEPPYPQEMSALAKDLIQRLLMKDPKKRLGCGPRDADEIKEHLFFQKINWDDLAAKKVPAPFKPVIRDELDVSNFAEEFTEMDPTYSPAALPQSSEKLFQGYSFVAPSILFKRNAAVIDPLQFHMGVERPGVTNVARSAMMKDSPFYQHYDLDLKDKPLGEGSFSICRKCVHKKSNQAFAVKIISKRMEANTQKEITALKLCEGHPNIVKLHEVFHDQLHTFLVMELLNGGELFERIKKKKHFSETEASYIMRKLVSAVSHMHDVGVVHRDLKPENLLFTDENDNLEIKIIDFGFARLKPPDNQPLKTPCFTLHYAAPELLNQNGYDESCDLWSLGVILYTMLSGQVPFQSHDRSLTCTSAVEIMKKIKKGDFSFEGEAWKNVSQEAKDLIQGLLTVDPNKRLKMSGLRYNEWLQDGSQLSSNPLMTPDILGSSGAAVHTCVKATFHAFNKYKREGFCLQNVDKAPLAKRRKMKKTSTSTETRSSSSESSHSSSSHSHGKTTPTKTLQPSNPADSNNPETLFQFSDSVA
stress-activated protein kinase 2a (SAPK-2A or p38), sequence (Q16539 whole entry, species assumed): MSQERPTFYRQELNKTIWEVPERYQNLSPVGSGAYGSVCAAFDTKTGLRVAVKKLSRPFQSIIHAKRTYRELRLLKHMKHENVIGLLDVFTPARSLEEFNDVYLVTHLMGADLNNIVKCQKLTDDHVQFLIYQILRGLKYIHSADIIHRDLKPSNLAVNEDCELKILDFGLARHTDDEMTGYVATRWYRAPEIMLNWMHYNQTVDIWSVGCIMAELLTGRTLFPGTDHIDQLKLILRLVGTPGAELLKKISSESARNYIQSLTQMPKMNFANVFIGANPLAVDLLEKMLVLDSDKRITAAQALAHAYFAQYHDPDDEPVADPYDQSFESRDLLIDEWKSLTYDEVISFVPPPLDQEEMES
MAPK kinase (MKK1, also called MEK), sequence (Q02750 whole entry): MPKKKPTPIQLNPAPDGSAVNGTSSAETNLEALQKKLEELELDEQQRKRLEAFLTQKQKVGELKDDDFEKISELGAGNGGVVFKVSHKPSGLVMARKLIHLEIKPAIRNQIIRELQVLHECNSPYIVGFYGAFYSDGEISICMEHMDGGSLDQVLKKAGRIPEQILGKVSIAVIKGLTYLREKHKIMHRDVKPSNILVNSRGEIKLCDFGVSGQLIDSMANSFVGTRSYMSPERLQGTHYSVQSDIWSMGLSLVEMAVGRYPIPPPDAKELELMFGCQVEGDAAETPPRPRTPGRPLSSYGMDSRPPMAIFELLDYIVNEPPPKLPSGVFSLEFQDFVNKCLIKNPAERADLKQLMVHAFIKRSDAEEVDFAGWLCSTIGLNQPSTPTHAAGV
protein kinase B (PKB, also called Akt), sequence (P31749 118-480 limits assumed, species assumed): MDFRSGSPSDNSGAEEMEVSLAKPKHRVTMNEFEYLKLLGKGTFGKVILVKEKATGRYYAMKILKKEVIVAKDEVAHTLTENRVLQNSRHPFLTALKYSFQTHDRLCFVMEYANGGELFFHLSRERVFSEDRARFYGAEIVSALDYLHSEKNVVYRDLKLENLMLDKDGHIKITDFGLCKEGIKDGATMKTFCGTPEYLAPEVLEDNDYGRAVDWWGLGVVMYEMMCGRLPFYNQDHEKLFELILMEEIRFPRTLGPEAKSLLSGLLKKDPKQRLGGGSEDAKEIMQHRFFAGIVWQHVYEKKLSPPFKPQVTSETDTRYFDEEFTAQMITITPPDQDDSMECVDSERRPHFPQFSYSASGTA
never-in-mitosis kinase 6 (NEK6), sequence (Q9HC98 whole entry, species assumed): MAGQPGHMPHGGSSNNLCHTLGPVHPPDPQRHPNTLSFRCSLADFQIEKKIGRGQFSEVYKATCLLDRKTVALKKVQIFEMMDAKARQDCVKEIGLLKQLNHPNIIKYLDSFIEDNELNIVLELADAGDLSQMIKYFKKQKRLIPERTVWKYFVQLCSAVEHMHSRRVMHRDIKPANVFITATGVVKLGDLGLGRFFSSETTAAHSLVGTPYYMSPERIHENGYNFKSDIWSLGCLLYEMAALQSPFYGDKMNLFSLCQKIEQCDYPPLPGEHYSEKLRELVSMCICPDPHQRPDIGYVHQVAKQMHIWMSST
c-Jun N-terminal kinase (JNK), sequence (P45983 whole entry): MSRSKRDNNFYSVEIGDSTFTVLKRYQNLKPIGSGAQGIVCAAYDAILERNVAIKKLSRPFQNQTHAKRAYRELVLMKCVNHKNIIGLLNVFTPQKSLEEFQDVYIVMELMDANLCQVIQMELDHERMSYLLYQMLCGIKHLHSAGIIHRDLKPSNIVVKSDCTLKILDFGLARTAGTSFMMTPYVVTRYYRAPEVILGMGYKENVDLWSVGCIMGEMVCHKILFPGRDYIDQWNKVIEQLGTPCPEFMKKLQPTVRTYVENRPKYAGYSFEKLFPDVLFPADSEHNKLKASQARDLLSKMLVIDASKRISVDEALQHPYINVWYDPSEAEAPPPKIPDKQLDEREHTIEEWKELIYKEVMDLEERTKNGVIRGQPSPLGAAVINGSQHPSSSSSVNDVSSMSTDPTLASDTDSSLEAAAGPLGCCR
lymphocyte kinase (LCK), sequence (P06239 whole entry, species assumed): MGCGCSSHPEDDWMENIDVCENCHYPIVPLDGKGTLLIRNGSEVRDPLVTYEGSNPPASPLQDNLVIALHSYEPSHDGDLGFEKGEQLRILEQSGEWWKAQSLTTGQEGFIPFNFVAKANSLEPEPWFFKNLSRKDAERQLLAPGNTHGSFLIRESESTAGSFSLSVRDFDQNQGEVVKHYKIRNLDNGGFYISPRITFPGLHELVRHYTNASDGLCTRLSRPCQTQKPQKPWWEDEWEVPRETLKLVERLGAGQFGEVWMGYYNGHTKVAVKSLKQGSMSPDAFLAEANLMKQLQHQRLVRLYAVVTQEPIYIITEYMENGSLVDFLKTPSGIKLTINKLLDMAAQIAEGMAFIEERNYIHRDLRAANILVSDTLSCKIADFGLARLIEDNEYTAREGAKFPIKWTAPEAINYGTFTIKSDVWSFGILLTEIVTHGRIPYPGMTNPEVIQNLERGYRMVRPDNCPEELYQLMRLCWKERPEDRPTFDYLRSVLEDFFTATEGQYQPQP

Row | SMILES | Kinase NEK6 inhibition [1] | Kinase DYRK1A inhibition [2] | Kinase PKB inhibition [3] | Kinase PDK1 inhibition [4] | Kinase CDK2/A inhibition [5] | Kinase MKK1 inhibition [6] | Kinase PRAK inhibition [7] | Kinase JNK inhibition [8] | Kinase PHK inhibition [9] | Kinase LCK inhibition [10] | Kinase MSK1 inhibition [11] | Kinase SAPK-2A inhibition [12] | Kinase SAPK3 inhibition [13]
1 | CCNCc1cncc(-c2ccc3[nH]nc(-c4nc5c(NC(C)=O)cccc5[nH]4)c3c2)c1C [D] | − (Weak inhibition <50%) | ++ (Strong inhibition >75%) | − (Weak inhibition <50%) | − (Weak inhibition <50%) | ++ (Strong inhibition >75%) | + (Moderate inhibition 50–75%) | + (Moderate inhibition 50–75%) | − (Weak inhibition <50%) | − (Weak inhibition <50%) | − (Weak inhibition <50%) | − (Weak inhibition <50%) | − (Weak inhibition <50%) | − (Weak inhibition <50%)
2 | CCNCc1cncc(-c2ccc3[nH]nc(-c4nc5ccccc5[nH]4)c3c2)c1C [A] | − (Weak inhibition <50%) | ++ (Strong inhibition >75%) | − (Weak inhibition <50%) | + (Moderate inhibition 50–75%) | ++ (Strong inhibition >75%) | ++ (Strong inhibition >75%) | ++ (Strong inhibition >75%) | − (Weak inhibition <50%) | ++ (Strong inhibition >75%) | ++ (Strong inhibition >75%) | − (Weak inhibition <50%) | − (Weak inhibition <50%) | − (Weak inhibition <50%)
3 | CCNCc1cncc(-c2ccc3[nH]nc(-c4nc5c(C(=O)NC)cccc5[nH]4)c3c2)c1C [B] | − (Weak inhibition <50%) | ++ (Strong inhibition >75%) | − (Weak inhibition <50%) | − (Weak inhibition <50%) | ++ (Strong inhibition >75%) | + (Moderate inhibition 50–75%) | + (Moderate inhibition 50–75%) | − (Weak inhibition <50%) | + (Moderate inhibition 50–75%) | ++ (Strong inhibition >75%) | − (Weak inhibition <50%) | − (Weak inhibition <50%) | − (Weak inhibition <50%)
4 | CCNCc1cncc(-c2ccc3[nH]nc(-c4nc5cc(F)ccc5[nH]4)c3c2)c1C [Example 2, Ethyl-{5-[3-(5-fluoro-1H-benzoimidazol-2-yl)-1H-indazol-5-yl]-4-methyl-pyridin-3-ylmethyl}-amine] | − (Weak inhibition <50%) | ++ (Strong inhibition >75%) | − (Weak inhibition <50%) | − (Weak inhibition <50%) | ++ (Strong inhibition >75%) | − (Weak inhibition <50%) | − (Weak inhibition <50%) | − (Weak inhibition <50%) | ++ (Strong inhibition >75%) | + (Moderate inhibition 50–75%) | − (Weak inhibition <50%) | − (Weak inhibition <50%) | − (Weak inhibition <50%)
5 | CCNCc1cncc(-c2ccc3[nH]nc(-c4nc5c(SC)cccc5[nH]4)c3c2)c1C [C] | − (Weak inhibition <50%) | ++ (Strong inhibition >75%) | − (Weak inhibition <50%) | − (Weak inhibition <50%) | ++ (Strong inhibition >75%) | + (Moderate inhibition 50–75%) | ++ (Strong inhibition >75%) | − (Weak inhibition <50%) | + (Moderate inhibition 50–75%) | + (Moderate inhibition 50–75%) | − (Weak inhibition <50%) | − (Weak inhibition <50%) | − (Weak inhibition <50%)
6 | CCNCc1cncc(-c2ccc3[nH]nc(-c4nc5c(F)cc(F)cc5[nH]4)c3c2)c1C [Example 1, {5-[3-(4,6-Difluoro-1H-benzoimidazol-2-yl)-1H-indazol-5-yl]-4-methyl-pyridin-3-ylmethyl}-ethyl-amine] | − (Weak inhibition <50%) | ++ (Strong inhibition >75%) | − (Weak inhibition <50%) | − (Weak inhibition <50%) | ++ (Strong inhibition >75%) | − (Weak inhibition <50%) | − (Weak inhibition <50%) | − (Weak inhibition <50%) | + (Moderate inhibition 50–75%) | + (Moderate inhibition 50–75%) | − (Weak inhibition <50%) | − (Weak inhibition <50%) | − (Weak inhibition <50%)
